Assay results published in EP4678638A1, “NEW E3 UBIQUITIN LIGASE LIGAND, PROTEIN DEGRADATION AGENT AND USE THEREOF” (priority 2023, dated 2024).

Target: T1, human Cereblon WT GST-tagged protein (Homo sapiens, UniProt Q96SW2)
T1 construct: purchased CISBIO 64BDCRBNPEH
Assay: CRBN binding, HTRF (CEREBLON BINDING kit)
Settings: HTRF; for inhibition at 0.5 µM / inhibition at 2 µM: Table II-2, CRBN binding screening; for inhibition at 0.5 µM: read-out: Inhibition rate (%) at 0.5µM; for inhibition at 2 µM: read-out: Inhibition rate (%) at 2 µM
Protocol: The CEREBLON BINDING kits (specification: 10,000 tests; product number: Catalog # 64BDCRBNPEH; CISBIO company) was used to determine the CRBN binding ability of the compounds to be tested through a HTRF method (homogeneous time-resolved fluorescence). The specific methods are as follows: • 1. […] Then, 2.5 µL of human Cereblon WT GST-tagged protein solution was added to each well. Finally, 5 µL of the thoroughly mixed Thalidomide-Re reagent and GST Eu antibody working solution were added to each of the aforementioned wells. […] The blank control wells were sequentially added with 2.5 µL of diluent #9 (1X) solution, 2.5 µL of binding buffer, and 5 µL of thoroughly mixed Thalidomide-Re reagent and GST Eu antibody working solution. • 4. After sealing and incubating the solutions in the aforementioned wells at room temperature for 3 hours, the […] at emission wavelengths of 620 nm and 665 nm were detected by the HTRF method using a Spark microplate reader (V3.1 SP1).

T1 sequence (Q96SW2 whole entry): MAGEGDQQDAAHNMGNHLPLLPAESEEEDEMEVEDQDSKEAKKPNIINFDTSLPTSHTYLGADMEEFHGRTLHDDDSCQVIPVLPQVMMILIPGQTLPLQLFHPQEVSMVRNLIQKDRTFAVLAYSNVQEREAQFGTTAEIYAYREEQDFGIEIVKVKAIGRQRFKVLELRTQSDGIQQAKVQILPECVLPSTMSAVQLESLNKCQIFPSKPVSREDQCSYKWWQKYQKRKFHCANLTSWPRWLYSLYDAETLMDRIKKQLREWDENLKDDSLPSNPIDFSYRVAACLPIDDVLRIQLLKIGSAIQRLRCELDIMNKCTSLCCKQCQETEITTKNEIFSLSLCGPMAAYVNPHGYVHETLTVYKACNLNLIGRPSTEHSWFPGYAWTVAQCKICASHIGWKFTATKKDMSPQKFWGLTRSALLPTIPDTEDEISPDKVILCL

| SMILES | inhibition at 0.5 µM | inhibition at 2 µM | IC50 (Table II-1, CRBN binding) |
| --- | --- | --- | --- |
| CC(C)(O)c1cc2nc(C3CCN(Cc4cncc(C5CCC(=O)NC5=O)c4)CC3)oc2cc1NC(=O)c1cccc(C(F)(F)F)n1 (stereo not shown) [GT-07630, N-(2-(1-((5-(2,6-dioxopiperidin-3-yl)pyridin-3-yl)methyl)piperidin-4-yl)-5-(2-hydroxypropan-2-yl)benzo[d]oxazol-6-yl)-6-(trifluoromethyl)picolinamide] | 20 to 30% | 60 to 80% |  |
| Cc1ccc(C(=O)Nc2ccc(N3CCC(N(C)Cc4ccc(C5CCC(=O)NC5=O)c(F)c4)CC3)c(C(F)(F)F)c2)cc1C#Cc1cnc2cccnn12 (stereo not shown) [GT-04107, N-(4-(4-((4-(2,6-dioxopiperidin-3-yl)-3-fluorobenzyl)(methyl)amino)piperidin-1-yl)-3-(trifluoromethyl)phenyl)-3-(imidazo[1,2-b]pyridazin-3-ylethynyl)-4-methylbenzamide] | 30 to 40% | 80 to 100% |  |
| O=C1CCN(c2ccc(CCl)nc2)C(=O)N1 [GT-06984, 1-(6-(Chloromethyl)pyridin-3-yl)dihydropyrimidine-2,4(1H,3H)-dione] | 30 to 40% | 60 to 80% |  |
| O=C1CCC(c2ccc(CN3CCC(n4cc(NC(=O)c5cnn6ccc(N7CCOCC7)nc56)c(C(F)F)n4)CC3)nc2)C(=O)N1 (stereo not shown) [GT-07769, N-(3-(difluoromethyl)-1-(1-((5-(2,6-dioxopiperidin-3-yl)pyridin-2-yl)methyl)piperidin-4-yl)-1H-pyrazol-4-yl)-5-morpholinopyrazolo[1,5-a]pyrimidine-3-carboxamide] | 40 to 53% | 80 to 100% |  |
| COc1cc2nn(C3CCN(Cc4cc(C5CCC(=O)NC5=O)cnc4F)CC3)cc2cc1NC(=O)c1cccc(C(F)(F)F)c1 (stereo not shown) [GT-07547, N-(2-(1-((5-(2,6-dioxopiperidin-3-yl)-2-fluoropyridin-3-yl)methyl)piperidin-4-yl)-6-methoxy-2H-indazol-5-yl)-3-(trifluoromethyl)benzamide] | 40 to 53% | 80 to 100% |  |
| CC(C)(O)c1cc2nn(C3CCN(Cc4cc(N5CCC(=O)NC5=O)cnc4F)CC3)cc2cc1NC(=O)c1cccc(C(F)(F)F)n1 [GT-07783, N-(2-(1-((5-(2,4-dioxotetrahydropyrimidin-1(2H)-yl)-2-fluoropyridin-3-yl)methyl)piperidin-4-yl)-6-(2-hydroxypropan-2-yl)-2H-indazol-5-yl)-6-(trifluoromethyl)picolinamide] | 30 to 40% | 60 to 80% |  |
| O=C1CCN(c2cncc(CN3CCC(n4cc(NC(=O)c5cnn6ccc(N7CCOCC7)nc56)c(C(F)F)n4)CC3)c2)C(=O)N1 [GT-07766, N-(3-(difluoromethyl)-1-(1-((5-(2,4-dioxotetrahydropyrimidin-1(2H)-yl)pyridin-3-yl)methyl)piperidin-4-yl)-1H-pyrazol-4-yl)-5-morpholinopyrazolo[1,5-a]pyrimidine-3-carboxamide] | 30 to 40% | 60 to 80% |  |
| O=C1CCN(c2ccc(CN3CCN(C4CCN(c5ccc([C@@H]6c7ccc(O)cc7CC[C@@H]6c6ccccc6)cc5)CC4)CC3)cc2F)C(=O)N1 [GT-04738, 1-(2-fluoro-4-((4-(1-(4-((1R,2S)-6-hydroxy-2-phenyl-1,2,3,4-tetrahydronaphthalen-1-yl)phenyl)piperidin-4-yl)piperazin-1-yl)methyl)phenyl)dihydropyr imidine-2,4(1H,3H)-dione] |  |  | 1000 to 1900 nM |
| Cn1cc(-c2cc(S(C)(=O)=O)ccc2OCc2ccc(N3CCC(=O)NC3=O)cc2)c2cc[nH]c2c1=O [GT-04645, 1-(4-((2-(6-methyl-7-oxo-6,7-dihydro-1H-pyrrolo[2,3-c]pyridin-4-yl)-4-(methylsulfonyl)phenoxy)methyl)phenyl)dihydropyrimidine-2,4(1H,3H)-dione] | 20 to 30% | 53 to 60% |  |
| CC(=O)c1c(C)c2cnc(Nc3ccc(N4CCN(Cc5cncc(C6CCC(=O)NC6=O)c5)CC4)cn3)nc2n(C2CCCC2)c1=O (stereo not shown) [GT-07485, 3-(5-((4-(6-((6-acetyl-8-cyclopentyl-5-methyl-7-oxo-7,8-dihydropyrido[2,3-d]pyrimidin-2-yl)amino)pyridin-3-yl)piperazin-1-yl)methyl)pyridin-3-yl)piperidine-2,6-dione] | 53 to 60% | 80 to 100% |  |
| Cn1cc(-c2cc(S(C)(=O)=O)ccc2OCc2ccc(N3CCC(=O)NC3=O)c(F)c2)c2cc[nH]c2c1=O [GT-04643, 1-(2-fluoro-4-((2-(6-methyl-7-oxo-6,7-dihydro-1H-pyrrolo[2,3-c]pyridin-4-yl)-4-(methylsulfonyl)phenoxy)methyl)phenyl)dihydropyrimidine-2,4(1H,3H)-dione] | 30 to 40% | 60 to 80% |  |
| CC(C)(O)c1cc2nc(C3CCN(Cc4cc(C5CCC(=O)NC5=O)cnc4F)CC3)sc2cc1NC(=O)c1cccc(C(F)(F)F)n1 (stereo not shown) [GT-07621, N-(2-(1-((5-(2,6-dioxopiperidin-3-yl)-2-fluoropyridin-3-yl)methyl)piperidin-4-yl)-5-(2-hydroxypropan-2-yl)benzo[d]thiazol-6-yl)-6-(trifluoromethyl)picolinamide] | 53 to 60% | 60 to 80% |  |
| CNC(=O)c1ccccc1Nc1cc(Nc2cc(C)c(C3CCN(Cc4ccc(N5CCC(=O)NC5=O)cc4)CC3)cc2OC(C)C)ncc1C(F)(F)F [GT-07667, 2-((2-((4-(1-(4-(2,4-dioxotetrahydropyrimidin-1(2H)-yl)benzyl)piperidin-4-yl)-2-isopropoxy-5-methylphenyl)amino)-5-(trifluoromethyl)pyridin-4-yl)amino)-N-methylbenzamide] | 20 to 30% | 53 to 60% |  |
| CC(=O)c1c(C)c2cnc(Nc3ccc(N4CCN(Cc5cc(C6CCC(=O)NC6=O)cnc5F)CC4)cn3)nc2n(C2CCCC2)c1=O (stereo not shown) [GT-07591, 3-(5-((4-(6-((6-acetyl-8-cyclopentyl-5-methyl-7-oxo-7,8-dihydropyrido[2,3-d]pyrimidin-2-yl)amino)pyridin-3-yl)piperazin-1-yl)methyl)-6-fluoropyridin-3-yl)piperidine-2,6-dione] | 20 to 30% | 80 to 100% |  |
| O=C1CCC(c2ccc(CN3CCC(n4cc(NC(=O)c5cnn6ccc(N7C[C@H]8C[C@@H]7CO8)nc56)c(C(F)F)n4)CC3)nc2)C(=O)N1 (stereo partly drawn) [GT-07777, 5-((1R,4R)-2-oxa-5-azabicyclo[2.2.1]heptan-5-yl)-N-(3-(difluoromethyl)-1-(1-((5-(2,6-dioxopiperidin-3-yl)pyridin-2-yl)methyl)piperidin-4-yl)-1H-pyrazol-4-yl)pyrazolo[1,5-a]pyrimidine-3-carboxamide] | 53 to 60% | 80 to 100% |  |
| CN(c1nccnc1CNc1nc(Nc2ccc(N3CCN(Cc4cc(C5CCC(=O)NC5=O)cnc4F)CC3)cc2)ncc1C(F)(F)F)S(C)(=O)=O (stereo not shown) [GT-07397, N-(3-(((2-((4-(4-((5-(2,6-dioxopiperidin-3-yl)-2-fluoropyridin-3-yl)methyl)piperazin-1-yl)phenyl)amino)-5-(trifluoromethyl)pyrimidin-4-yl)amino)methyl)pyrazin-2-yl)-N-methylmethanesulfonamide] | 30 to 40% | 60 to 80% |  |
| CC(C)Nc1cc(-n2ccc3cc(C#N)cnc32)ncc1C(=O)NC1CCN(Cc2cc(N3CCC(=O)NC3=O)cnc2F)CC1 [GT-07779, 6-(5-cyano-1H-pyrrolo[2,3-b]pyridin-1-yl)-N-(1-((5-(2,4-dioxotetrahydropyrimidin-1(2H)-yl)-2-fluoropyridin-3-yl)methyl)piperidin-4-yl)-4-(isopropylamino)nicotinamide] | 20 to 30% | 60 to 80% |  |
| [2H]C1([2H])N(CC[C@H](CSc2ccccc2)Nc2ccc(S(=O)(=O)NC(=O)c3ccc(N4CCN(CC5=C(c6ccc(Cl)cc6)CCC(C)(C)C5)CC4)cc3)cc2S(=O)(=O)C(F)(F)F)C([2H])([2H])C([2H])([2H])N(Cc2ccc(C3CCC(=O)NC3=O)cc2)C1([2H])[2H] (stereo partly drawn) [GT-07906, 4-(4-((4'-chloro-4,4-dimethyl-3,4,5,6-tetrahydro-[1,1'-biphenyl]-2-yl)methyl)piperazin-1-yl)-N-((4-(((2R)-4-(4-(4-(2,6-dioxopiperidin-3-yl)benzyl)piperazin-1-yl-2,2,3,3,5,5,6,6-d8)-1-(phenylthio)butan-2-yl)amino)-3-((trifluoromethyl)sulfonyl)phenyl)sulfonyl)benzamide] | 20 to 30% | 53 to 60% |  |
| O=C1CCC(c2cc(CN3CCC(n4cc(NC(=O)c5cnn6ccc(N7C[C@H]8C[C@@H]7CO8)nc56)c(C(F)F)n4)CC3)ccn2)C(=O)N1 (stereo partly drawn) [GT-07776, 5-((1R,4R)-2-oxa-5-azabicyclo[2.2.1]heptan-5-yl)-N-(3-(difluoromethyl)-1-(1-((2-(2,6-dioxopiperidin-3-yl)pyridin-4-yl)methyl)piperidin-4-yl)-1H-pyrazol-4-yl)pyrazolo[1,5-a]pyrimidine-3-carboxamide] | 20 to 30% | 60 to 80% |  |
